# In PubChem BioAssay AID1358 (Sanford-Burnham Center for Chemical Genomics, 2008):
# Calls of active or inactive are those of the source.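 The calls were made as follows: active = no phosphorylated p38 MAPK band on western blot after an ER stress trigger, matching the untreated control; inactive = the rest.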
# Test system: CSM14.1 cells, thapsigargin, phospho-p38 Western blot
# Assay: p38 MAPK activation blockade under ER stress – CSM14.1 cells, thapsigargin, Western blot, mechanism study for ER stress cell death project, late-stage follow-up (AID 1358)
row,SMILES,outcome
1,CCOc1cccc(C2Nc3ccccc3NC3=C2C(=O)CC(c2ccc(OC)cc2)C3)c1 (stereo unspecified),active
2,COc1ccc(C2CC(=O)C3=C(C2)Nc2ccccc2NC3c2ccccc2C(F)(F)F)cc1OC (stereo unspecified),active
3,COc1ccc(C2CC(=O)C3=C(C2)Nc2ccccc2NC3c2cccc(Oc3ccccc3)c2)cc1OC (stereo unspecified),active
4,COc1ccc(C2CC(=O)C3=C(C2)Nc2ccccc2NC3c2cc(C)ccc2C)cc1 (stereo unspecified),active
5,COc1ccc(C2CC(=O)C3=C(C2)Nc2ccccc2NC3c2cccc(C(F)(F)F)c2)cc1OC (stereo unspecified),active
6,CC1(C)CC(=O)C2=C(C1)Nc1ccccc1NC2c1ccc(-c2ccccc2)cc1 (stereo unspecified),active
7,COc1ccc(C2CC(=O)C3=C(C2)Nc2ccccc2NC3c2cccc(Br)c2)cc1OC (stereo unspecified),active
8,CSc1ccc(C2Nc3ccccc3NC3=C2C(=O)CC(c2ccccc2)C3)cc1 (stereo unspecified),active
9,O=C1CC(c2ccccc2)CC2=C1C(c1c(F)cccc1Cl)Nc1ccccc1N2 (stereo unspecified),active
10,CCOc1cc(C2Nc3ccccc3NC3=C2C(=O)CC(c2ccc(OC)cc2)C3)cc(Cl)c1O (stereo unspecified),active
11,CCCOc1ccc(C2Nc3ccccc3NC3=C2C(=O)CC(c2ccc(OC)c(OC)c2)C3)cc1 (stereo unspecified),active
